From patent US10201530B2, “Treatment of BRCA1-defective cancer or resistant cancers” (City of Hope, priority 2014, dated 2019)

Tests used:
Assay type in all cases: cell-based, human
[1] = tested on: UWB1.289; test: Cytotoxicity, UWB1.289 cells; conditions: Homo sapiens, UWB1289; UWB1.289, BRCA1-defective ovarian cancer cells; COH29 72 h; read-out: IC50, mean ± SEM
Procedure: (§1) All cell lines were acquired from the American Type Culture Collection (Manassas, Va., USA). Cells were maintained in RPMI 1640 medium (Mediatech) with 10% fetal bovine serum, 2 mM glutamine, and 100 U of penicillin and 100 μg of streptomycin per ml of medium (Sigma) at 37° C. in 5% CO2. To isolate HCC1437+BRCA1 cells, parental HCC1937 cells were transfected with pcDNA3.1 plasmid expressing full-length BRCA1 cDNA. Stable transfectant clones were selected and used for drug sensitivity assays. For stable transfection, cells at 30-40% confluence were incubated overnight with […] of plasmid DNA, using FUGENE® 6 transfectin reagent (Roche Molecular Biochemical, Monza, Italy) according to the manufacturer's instructions. Cells were then selected in puromycin (1 μg/ml) (Invitrogen life Technologies, La Jolla, Calif., USA.) After 20 to 30 days, viable puromycin-resistant colonies from HCC1937 transfections were expanded and screened. The clones that stably expressed […] and retained growth potential were assayed for BRCA1 expression by Western blot analysis. By Western blot analysis, we evaluated the restoration of BRCA1 expression in the puromycin-resistant cDNA/transfectant cells.
The MTT cytotoxicity assay was performed by incubating with MTT and monitoring the MTT formazan formed by viable cells with a microplate reader at a wavelength of 560 nm; the survival, ratio was determined using the formula: (Atest−Ablank)/(Acontrol−Ablank)×100%. The cytotoxicity was determined in 96-well plates using the semiautomatic fluorescence-based Digital Imaging Microscopy System (DIMSCAN). DIMSCAN uses digital imaging microscopy to quantify viable cells, which selectively accumulate FDA (fluorescein diacetate; Alfa Aesar, Ward Hill, Mass.). DIMSCAN is capable of measuring cytotoxicity over a 4 log dynamic range by quantifying total fluorescence per well (which is proportional to the number of viable cells) after elimination of the background fluorescence by digital thresholding and eosin Y (Mallinckrodt Baker, Center Valley, Pa.) quenching. Cells were seeded into 96-well plates in 100 μL of complete medium at 2,000 to 5,000 cells per well depending on cell line growth rate. After overnight incubation, test compound was added to each well at various concentrations in 50 μL of culture medium. […] Total fluorescence per well was then measured using DIMSCAN, and the results were expressed as the ratio of the fluorescence in treated wells to the fluorescence in untreated wells (survival fraction).

[2] = tested on: MCF-7; test: Cytotoxicity, MCF-7 cells; conditions: Homo sapiens, MCF7; MCF-7, ER+ PR(+)
Procedure: as §1
The MTT cytotoxicity assay was performed by incubating with MTT and monitoring the MTT formazan formed by viable cells with a microplate reader at a wavelength of 560 nm; the survival, ratio was determined using the formula: (Atest−Ablank)/(Acontrol−Ablank)×100%. The cytotoxicity was determined in 96-well plates using the semiautomatic fluorescence-based Digital Imaging Microscopy System (DIMSCAN). DIMSCAN uses digital imaging microscopy to quantify viable cells, which selectively accumulate FDA (fluorescein diacetate; Alfa Aesar, Ward Hill, Mass.). DIMSCAN is capable of measuring cytotoxicity over a 4 log dynamic range by quantifying total fluorescence per well (which is proportional to the number of viable cells) after elimination of the background fluorescence by digital thresholding and eosin Y (Mallinckrodt Baker, Center Valley, Pa.) quenching. […]

[3] = tested on: γ-H2AX, phospho-p53, phospho-ATM, foxo3, Rad51, BRCA1; test: DDR-associated proteins in A549 cells (Western blot, immunofluorescence)
Procedure: Immunofluorescence experiments were conducted as described previously (21,22). Specifically, A549 cells were grown on glass coverslips. After treatment with COH29 (1 or 10 μM) for 24 or 48 hours, cells were fixed with 4% paraformaldehyde for 10 min and permeabilizsd with TRITON™ X-100 (0.5%). The coverslips were washed with phosphate-buffered saline (PBS) and blocked with PBS-containing 2% bovine serum albumin (BSA), incubated with an Ab specific to FOXO3 or ATM-pS1981 or γ-H2AX or p53-pS15 (1:50-1:200 dilution), followed by Alexa 488-conjugated anti-rabbit or anti-mouse (1:200). Alexa 594-conjugated anti-goat (1:100) secondary Abs (Molecular Probes). Cells were incubated with 4′,6-diamidino-2-phenylindole (DAP1; Sigma) to stain the nuclei. Specific staining was visualized and images were captured with a Leica SF2 AOBS confocal laser scanning microscope. To measure foci-positive cells, we used ˜300 cells randomly captured by confocal microscopy. The percentages of considering foci-positive cells were calculated from cells containing at least five foci. Each error bar presented is the mean of standard deviation.
For subcellular fractionation, cells were trypsinized and washed with cold PBS solution twice. After centrifugation at 1,200 g for 5 min, cells were incubated in buffer (50 mM HEPES, pH 7.5, 150 mM NaCl, 1 mM EDTA) containing 0.2% NONIDET™ P-40 (NP-40), supplemented with protease inhibitors (5 μg/ml each of pepstatin, leupeptin, and aprotinin) and phosphatase inhibitors on ice for 5 min. Following centrifugation at 1,000 g for 5 min, the supernatant was collected (i.e., cytoplasmic fraction) and pellets were washed with the same buffer twice. The washed samples were extracted for 40 min on ice with fractionation buffer containing 0.5% NP-40 for nuclear fraction. All the samples were sonicated and clarified by centrifugation at 16,000 g for 15 min. Protein concentrations of all fractions were determined with Bio-Rad Protein Assay (Bio-Rad Laboratories, Hercules, Calif.). Immunoblotting was performed as described previously (21,22). Briefly, equal amounts of boiled protein samples were subjected to SDS-polyacrylamide gel electrophoresis (PAGE) and transferred onto nitrocellulose membranes (Bio-Rad Laboratories). Membranes were blocked for 1 hour in 3% BSA in Tris buffered saline containing 0.05% Tween 20 (TBST) and incubated for 1 hour with primary antibody (1:500 or 1:1000) diluted in TBST containing 1% BSA. After two washes with TBST, membranes were incubated for 1 hour with horseradish peroxidase-conjugated secondary Abs (1:3000 dilution) at room temperature. The immunoblots were visualized on film with the West-Q chemi-luminescence kit (GenDEPOT, Barker, Tex.).

`O=C(Nc1nc(-c2ccc(O)c(O)c2)c(-c2ccccc2)s1)c1ccc(O)c(O)c1` [COH29] was tested, and the IC50 [1] was 12.3 ± 1.15 µM, the IC50 [2] was 17.6 ± 1.54 µM and the “nuclear γ-H2AX, phospho-p53, phospho-ATM” value ([3]; A549 BRCA1 wild-type NSCLC cells, 48 h) was “induced accumulation of γ-H2AX, phospho-p53, and phospho-ATM in the nucleus”. The “nuclear foxo3 and p27” value ([3]; A549 cells) was “induction of foxo3 and its target protein p27 in the nucleus”, the “BRCA1 protein level and Rad51 foci formation” value ([3]; A549 cells, 24 h) was “suppressed the protein level of BRCA1 and Rad51 foci formation” and the “Rad51 expression, Western analysis” value ([3]; nucleus of A549 cells) was “downregulated in the nucleus”.
